Measured values published in patent US20210106547A1, “Managing Cardiovascular Conditions Associated with Kidney Disease” (Emory University, priority 2019, published 2021).
“Also recorded” adds a separate entry of the source.

Assays:
C57BL/6 wild type mice [1] = test: Cardiac echocardiographic analysis of mice after 5/6 nephrectomy and DMTU treatment; assay type: in vivo, mouse; conditions: for LVEDV: LV end-diastolic volume; for LVESD: LV end-systolic dimension; for LVESV: LV end-systolic volume; for FS: fractional shortening; for IVSd / IVSs: intraventricular septum; for PWd / PWs: posterior wall thickness; for LVMI: ratio of LVM to BW
Protocol: (§1) Experiment of C57BL/6 wild type mice. Mice underwent 5/6 nephrectomy surgery. Mice were fed 14% protein diet (0 weeks to 2 weeks), 23% protein diet (2 weeks to 6 weeks), and 40% protein diet (6 weeks to 8 weeks). Mice drank 1% NaCl water one week to six weeks after second surgery, and dimethylthiourea (DMTU; UT-A inhibitor) was administered by osmotic mini pump.
(§2) Since an increase in UT-A is associated with an increase in fibrosis proteins in vitro and in vivo, experiments were performed to determine whether inhibition of UT-A could prevent fibrosis in the heart of CKD mice. Mice were randomly divided into four cohorts: sham+vehicle, sham+DMTU, 5/6Nx+vehicle, and 5/6Nx+DMTU. Mini-pumps were used for DMTU administration (100 mg/kgBW/day). The phenotypic characteristics of mice were determined 8 weeks after completing the 5/6Nx (Table 1).
Both intraventricular septum (IVS) and posterior wall thicknesses (PW) were greatest in 5/6Nx+vehicle than all other three groups (Table 2).

C57BL/6 wild type mice [2] = test: Immunohistochemistry staining of heart for collagen type 1 and α-SMA; assay type: in vivo, mouse; conditions: 5/6Nx + DMTU compared with 5/6Nx + vehicle
Protocol: as §1, §2

C57BL/6 wild type mice [3] = test: Heart size and heart weight at sacrifice (cardiac hypertrophy); assay type: in vivo, mouse
Protocol: White bar is vehicle and black bar is DMTU treatment.
as §1, §2
Inhibition of UT-A suppressed CKD-induced increases in SBP in 5/6Nx mice (5/6Nx+DMTU: 119±3 mmHg vs 5/6Nx+vehicle: 130±2 mmHg, P<0.05) (FIG. 3A). […] DMTU suppressed the CKD-induced increase in heart weight (5/6Nx+DMTU: 3.74±0.12 mg/g vs 5/6Nx+vehicle: 4.50±0.09 mg/g, P<0.001) (FIG. 3D). Since the BW could be altered by either edema (in CKD) or dehydration (by DMTU), dry brain weight was also used to normalize heart weight.

C57BL/6 wild type mice [4] = test: Masson's Trichrome staining of mouse heart tissues, fibrosis area; assay type: in vivo; conditions: 5/6Nx + DMTU, 5/6Nx+vehicle 1.04±0.15
Protocol: Pictures were observed by ×200 magnification. Scale bar is 100 μm. Dark color indicated fibrosis in Masson's staining.
as §1, §2

C57BL/6 wild type mice [5] = test: Blood pressure by tail cuff method at 8 weeks after the second surgery; assay type: in vivo, mouse
Protocol: Systolic blood pressure at 8 weeks after the second surgery.
as §1, §2

C57BL/6 wild type mice [6] = test: Phenotypic characteristics of sham and 5/6Nx mice 8 weeks after 5/6 nephrectomy, DMTU by osmotic mini pump; assay type: in vivo, mouse; conditions: for 24 hr intake volume/BW / 24 hr urine osmolality / 24 hr urine volume/BW / BUN / Plasma osmolality / Urine urea / Volume in-out balance/BW: 8 weeks
Protocol: as §1, §2

UT-B = target: T1, UT-B (Homo sapiens, UniProt Q13336); conditions: cited from earlier work
T1 sequence (Q13336 1-389): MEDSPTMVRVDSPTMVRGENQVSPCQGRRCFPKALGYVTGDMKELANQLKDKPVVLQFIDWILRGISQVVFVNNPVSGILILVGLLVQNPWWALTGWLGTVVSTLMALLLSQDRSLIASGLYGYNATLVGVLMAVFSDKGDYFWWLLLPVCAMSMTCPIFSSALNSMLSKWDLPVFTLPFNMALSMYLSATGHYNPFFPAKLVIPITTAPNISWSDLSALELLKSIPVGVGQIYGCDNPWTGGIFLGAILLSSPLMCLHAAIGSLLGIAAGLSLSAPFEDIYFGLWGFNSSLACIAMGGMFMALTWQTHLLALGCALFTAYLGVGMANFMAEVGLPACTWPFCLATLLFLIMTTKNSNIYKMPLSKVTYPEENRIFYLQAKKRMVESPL

C57BL/6 wild type mice [7] = test: Quantitative mRNA expression in mouse hearts by real-time PCR; assay type: in vivo
Protocol: FIG. 4E show quantitative mRNA expression in mouse hearts performed by real-time PCR. Individual gene expression was calculated by ΔΔcq and standardized by housekeeping gene 18s.
Angiotensin converting enzyme (ACE) gene expression was calculated by ΔΔcq and standardized by housekeeping gene 18s.
as §1
Since an increase in UT-A is associated with an increase in fibrosis proteins in vitro and in vivo, experiments were performed to determine whether inhibition of UT-A could prevent fibrosis in the heart of CKD mice. […] The phenotypic characteristics of mice were determined 8 weeks after completing the 5/6Nx (Table 1).
In uremic cardiomyopathy, increased cardiac fibrosis and hypertrophy are associated with upregulation of the renin-angiotensin system (RAS). To identify whether the ability of UT-A to reduce cardiac fibrosis is related to the RAS, the mRNA expression of angiotensin converting enzyme (ACE) was measured in the heart of 4 groups of mice.

UT-A1 = target: T2, UT-A1 (Homo sapiens, UniProt Q15849); conditions: cited from earlier work
T2 sequence (Q15849 1-920): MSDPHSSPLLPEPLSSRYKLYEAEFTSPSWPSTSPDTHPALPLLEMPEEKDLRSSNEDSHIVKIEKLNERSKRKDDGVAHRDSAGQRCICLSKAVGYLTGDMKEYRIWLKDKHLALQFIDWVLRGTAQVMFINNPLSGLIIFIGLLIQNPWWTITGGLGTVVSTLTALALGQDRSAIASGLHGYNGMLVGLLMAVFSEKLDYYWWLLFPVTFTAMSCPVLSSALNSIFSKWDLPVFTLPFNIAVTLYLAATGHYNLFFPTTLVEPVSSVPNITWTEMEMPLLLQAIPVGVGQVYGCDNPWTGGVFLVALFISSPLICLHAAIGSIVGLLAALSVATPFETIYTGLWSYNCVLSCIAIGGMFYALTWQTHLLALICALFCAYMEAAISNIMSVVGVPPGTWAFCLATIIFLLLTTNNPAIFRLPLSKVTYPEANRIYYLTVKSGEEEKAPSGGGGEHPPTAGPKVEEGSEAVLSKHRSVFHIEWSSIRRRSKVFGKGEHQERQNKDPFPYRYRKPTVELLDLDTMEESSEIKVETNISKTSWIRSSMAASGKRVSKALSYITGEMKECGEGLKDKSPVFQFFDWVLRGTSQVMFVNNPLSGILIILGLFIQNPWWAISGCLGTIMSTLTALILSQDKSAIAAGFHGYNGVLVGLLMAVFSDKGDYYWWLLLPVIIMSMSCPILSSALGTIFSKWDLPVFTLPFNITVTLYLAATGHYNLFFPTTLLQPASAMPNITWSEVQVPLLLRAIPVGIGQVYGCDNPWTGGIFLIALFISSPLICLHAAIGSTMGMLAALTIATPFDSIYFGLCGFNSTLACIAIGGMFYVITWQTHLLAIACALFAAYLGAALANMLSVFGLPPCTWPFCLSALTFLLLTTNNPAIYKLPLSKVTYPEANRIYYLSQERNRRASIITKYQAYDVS

Rats = conditions: cited from earlier work

## CNC(=S)NC [DMTU, N,N′-dimethylthiourea]
C57BL/6 wild type mice [1]; 5/6Nx + DMTU
  CKD-induced increases of LVESD, LVEDV, LVESV and LVMI: eliminated these increases
  LVEDD: 3.43 ± 0.06 mm
  LVM: 89 ± 3 mg
  LVEDV: 62.6 ± 0.3 µL
  LVESD: 2.77 ± 0.02 mm
  LVESV: 23.6 ± 0.3 µL
  FS: 30 ± 0.5 %
  IVSd: 0.49 ± 0.01 mm
  IVSs: 1.08 ± 0.00 mm
  PWd: 0.55 ± 0.01 mm
  PWs: 0.52 ± 0.01 mm
  LVMI: 3.44 ± 0.13 mg/g
C57BL/6 wild type mice [1]; CKD heart
  Percentage of fractional shortening (FS), effect: restored FS to the normal range
C57BL/6 wild type mice [1]; mice of the cohorts other than 5/6Nx+vehicle (incl. sham+DMTU, 5/6Nx+DMTU)
  Pericardial effusion: none of the mice
C57BL/6 wild type mice [1]; sham + DMTU
  LVEDD: 3.80 ± 0.18 mm
  LVM: 97 ± 7 mg
  LVEDV: 57.3 ± 1.8 µL
  LVESD: 2.45 ± 0.14 mm
  LVESV: 21.8 ± 1.1 µL
  FS: 33 ± 0.5%
  IVSd: 0.44 ± 0.00 mm
  IVSs: 1.05 ± 0.00 mm
  PWd: 0.53 ± 0.00 mm
  PWs: 0.52 ± 0.03 mm
  LVMI: 3.73 ± 0.15 mg/g
C57BL/6 wild type mice [2]
  Collagen type I and α-smooth muscle actin (SMA) proteins in heart: less
C57BL/6 wild type mice [3]; 5/6Nx + DMTU, vs 5/6Nx+vehicle 1.34±0.09, P<0.01
  Ratio of heart weight to dry brain weight: 1.04 ± 0.04 mg/mg
C57BL/6 wild type mice [3]; 5/6Nx + DMTU, vs 5/6Nx+vehicle 4.50±0.09, P<0.001
  Ratio of heart weight/body weight (BW): 3.74 ± 0.12 mg/g
C57BL/6 wild type mice [3]; 5/6Nx mice, at sacrifice
  CKD-induced increase in heart size: suppressed the CKD-induced increase in heart size
C57BL/6 wild type mice [4]
  Percentage of fibrosis area in heart: 0.57±0.07%
C57BL/6 wild type mice [5]; 5/6Nx + DMTU, 8 weeks, vs 5/6Nx+vehicle 130±2, P<0.05
  SBP (systolic blood pressure): 119±3 mmHg
C57BL/6 wild type mice [5]; sham or 5/6Nx mice
  Effect on DBP (diastolic blood pressure): did not affect DBP
C57BL/6 wild type mice [6]; 5/6Nx + DMTU
  Volume in-out balance relative to 5/6Nx+vehicle: the balance was less
  24 hr intake volume/BW: 0.265 ± 0.028 mL/g
  24 hr urine osmolality: 1206 ± 116 mOsmol/kg H2O
  24 hr urine volume/BW: 0.170 ± 0.013 mL/g
  BUN: 63.7 ± 4.6 mg/dL
  Plasma osmolality: 329 ± 3 mOsmol/kg H2O
  Urine urea: 926 ± 95 mmol/L
  Volume in-out balance/BW: 0.114 ± 0.014 mL/g
C57BL/6 wild type mice [6]; CKD mice
  Increase of urine volume and decrease of urine osmolality: absent
C57BL/6 wild type mice [6]; either sham or CKD mice
  BUN values with DMTU treatment vs. vehicle treatment: no significant difference
C57BL/6 wild type mice [6]; sham + DMTU
  24 hr intake volume/BW: 0.129 ± 0.006 mL/g
  24 hr urine osmolality: 2378 ± 133 mOsmol/kg H2O
  24 hr urine volume/BW: 0.058 ± 0.010 mL/g
  BUN: 31.3 ± 2.8 mg/dL
  Plasma osmolality: 322 ± 1 mOsmol/kg H2O
  Urine urea: 1555 ± 128 mmol/L
  Volume in-out balance/BW: 0.081 ± 0.010 mL/g
C57BL/6 wild type mice [6]; sham mice
  Effect on urine osmolality: decreased urine osmolality
  Effect on urine volume: increased urine volume
UT-B
  Inhibition of UT-B: inhibits
C57BL/6 wild type mice [7]; 5/6Nx + DMTU compared with 5/6Nx + vehicle
  mRNA expression of fibrosis related genes (collagen 1A1, collagen 4A1, fibronectin and α-SMA) in heart: less than 5/6Nx+vehicle mice
C57BL/6 wild type mice [7]; sham and 5/6Nx groups, DMTU vs vehicle
  mRNA expression of angiotensin converting enzyme (ACE) in heart: significantly abolished ACE expression; also recorded: suppressed an increase in ACE mRNA expression
UT-A1
  Inhibition of UT-A1: inhibits
Rats
  Diuresis compared with furosemide: greater diuresis
  Side effects like hyponatremia or hypokalemia: did not show side effects
